Reference: ChEMBL document CHEMBL1201862, “PubChem BioAssay data set” (2004)
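Grown in 96-well plates, cells were treated for 48 hours with each compound at five concentrations. Insufficient inhibition: endpoint recorded as highest concentration tested. Abbreviation: GI50, concentration required for 50% inhibition of growth.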 Active and inactive are the calls of the source. No stated cut-off is given here; in the data, active = GI50 up to about 1.1 µM and inactive = higher.

How the values were obtained:
Assay in all cases: inhibition of tumour cell growth, NCI panel, 48 h
[1] = tested on: 786-0
[2] = tested on: A498
[3] = tested on: A549
[4] = tested on: ACHN
[5] = tested on: CAKI-1
[6] = tested on: CCRF-CEM
[7] = tested on: COLO 205
[8] = tested on: DU-145
[9] = tested on: EKVX
[10] = tested on: HCC 2998
[11] = tested on: HCT-116
[12] = tested on: HCT-15
[13] = tested on: HL-60
[14] = tested on: HOP-62
[15] = tested on: HOP-92
[16] = tested on: HT-29
[17] = tested on: Hs-578T
[18] = tested on: IGROV-1
[19] = tested on: K562
[20] = tested on: KM12
[21] = tested on: LOX IMVI
[22] = tested on: M14
[23] = tested on: MCF7
[24] = tested on: MDA-MB-231
[25] = tested on: MDA-MB-435
[26] = tested on: MDA-N
[27] = tested on: MOLT-4
[28] = tested on: Malme-3M
[29] = tested on: NCI-H226
[30] = tested on: NCI-H23
[31] = tested on: NCI-H460
[32] = tested on: NCI-H522
[33] = tested on: NCI/ADR-RES
[34] = tested on: OVCAR-3
[35] = tested on: OVCAR-4
[36] = tested on: OVCAR-5
[37] = tested on: OVCAR-8
[38] = tested on: PC-3
[39] = tested on: RPMI-8226
[40] = tested on: RXF 393
[41] = tested on: SF-268
[42] = tested on: SF-295
[43] = tested on: SF-539
[44] = tested on: SK-MEL-28
[45] = tested on: SK-MEL-2
[46] = tested on: SK-MEL-5
[47] = tested on: SK-OV-3
[48] = tested on: SN12C
[49] = tested on: SNB-19
[50] = tested on: SNB-75
[51] = tested on: SR
[52] = tested on: SW-620
[53] = tested on: T47D
[54] = tested on: TK-10
[55] = tested on: U-251
[56] = tested on: UACC-257
[57] = tested on: UO-31
[58] = tested on: UACC-62

CC(C)(C)C(=O)/C=C(\OB(F)F)C(C)(C)C
GI50 [1]: > 100 µM (inactive) | GI50 [2]: > 100 µM (inactive) | GI50 [3]: > 100 µM (inactive) | GI50 [4]: > 100 µM (inactive) | GI50 [5]: > 100 µM (inactive) | GI50 [6]: > 100 µM (inactive) | GI50 [7]: > 100 µM (inactive) | GI50 [8]: > 100 µM (inactive) | GI50 [9]: > 100 µM (inactive) | GI50 [10]: > 100 µM (inactive) | GI50 [11]: > 100 µM (inactive) | GI50 [12]: > 100 µM | GI50 [13]: > 100 µM (inactive) | GI50 [14]: > 100 µM (inactive) | GI50 [15]: > 100 µM (inactive) | GI50 [16]: > 100 µM (inactive) | GI50 [17]: > 100 µM (inactive) | GI50 [18]: > 100 µM (inactive) | GI50 [19]: > 100 µM (inactive) | GI50 [20]: > 100 µM (inactive) | GI50 [21]: > 100 µM (inactive) | GI50 [22]: > 100 µM (inactive) | GI50 [23]: > 100 µM (inactive) | GI50 [24]: > 100 µM (inactive) | GI50 [25]: > 100 µM (inactive) | GI50 [26]: > 100 µM (inactive) | GI50 [27]: > 100 µM (inactive) | GI50 [28]: > 100 µM (inactive) | GI50 [29]: > 100 µM (inactive) | GI50 [30]: > 100 µM (inactive) | GI50 [31]: > 100 µM (inactive) | GI50 [32]: > 100 µM (inactive) | GI50 [33]: > 100 µM (inactive) | GI50 [34]: > 100 µM (inactive) | GI50 [35]: > 100 µM (inactive) | GI50 [36]: > 100 µM (inactive) | GI50 [37]: > 100 µM (inactive) | GI50 [38]: > 100 µM (inactive) | GI50 [39]: > 100 µM (inactive) | GI50 [40]: > 100 µM (inactive) | GI50 [41]: > 100 µM (inactive) | GI50 [42]: > 100 µM (inactive) | GI50 [43]: > 100 µM (inactive) | GI50 [44]: > 100 µM (inactive) | GI50 [45]: > 100 µM (inactive) | GI50 [46]: > 100 µM (inactive) | GI50 [47]: > 100 µM (inactive) | GI50 [48]: > 100 µM (inactive) | GI50 [49]: > 100 µM (inactive) | GI50 [50]: > 100 µM (inactive) | GI50 [51]: 84.5 µM (inactive) | GI50 [52]: > 100 µM (inactive) | GI50 [53]: > 100 µM (inactive) | GI50 [54]: > 100 µM (inactive) | GI50 [55]: > 100 µM (inactive) | GI50 [56]: > 100 µM (inactive) | GI50 [57]: > 100 µM (inactive)

C[C@H]1C[C@H]2[C@@H]3CCC4=CC(=O)C=C[C@]4(C)C3=CC[C@]2(C)[C@@]1(O)C(=O)CO
GI50 [1]: > 100 µM (inactive) | GI50 [2]: 23.4 µM (inactive) | GI50 [3]: > 100 µM (inactive) | GI50 [4]: > 100 µM (inactive) | GI50 [5]: > 100 µM (inactive) | GI50 [6]: 66.8 µM (inactive) | GI50 [7]: > 100 µM (inactive) | GI50 [8]: > 100 µM (inactive) | GI50 [9]: 50.6 µM (inactive) | GI50 [10]: > 100 µM (inactive) | GI50 [11]: > 100 µM (inactive) | GI50 [12]: > 100 µM | GI50 [13]: 42 µM (inactive) | GI50 [14]: > 100 µM (inactive) | GI50 [15]: > 100 µM (inactive) | GI50 [16]: > 100 µM (inactive) | GI50 [17]: > 100 µM (inactive) | GI50 [18]: > 100 µM (inactive) | GI50 [19]: > 100 µM (inactive) | GI50 [20]: > 100 µM (inactive) | GI50 [21]: > 100 µM (inactive) | GI50 [22]: > 100 µM (inactive) | GI50 [23]: > 100 µM (inactive) | GI50 [24]: > 100 µM (inactive) | GI50 [25]: > 100 µM (inactive) | GI50 [26]: > 100 µM (inactive) | GI50 [27]: 64 µM (inactive) | GI50 [28]: > 100 µM (inactive) | GI50 [29]: > 100 µM (inactive) | GI50 [30]: 95.1 µM (inactive) | GI50 [31]: > 100 µM (inactive) | GI50 [32]: 68.2 µM (inactive) | GI50 [33]: > 100 µM (inactive) | GI50 [35]: > 100 µM (inactive) | GI50 [36]: > 100 µM (inactive) | GI50 [37]: > 100 µM (inactive) | GI50 [38]: 99.5 µM (inactive) | GI50 [39]: 37.2 µM (inactive) | GI50 [40]: > 100 µM (inactive) | GI50 [41]: > 100 µM (inactive) | GI50 [42]: > 100 µM (inactive) | GI50 [44]: > 100 µM (inactive) | GI50 [45]: > 100 µM (inactive) | GI50 [46]: 83.4 µM (inactive) | GI50 [47]: > 100 µM (inactive) | GI50 [48]: > 100 µM (inactive) | GI50 [49]: > 100 µM (inactive) | GI50 [50]: > 100 µM (inactive) | GI50 [51]: 37.7 µM (inactive) | GI50 [53]: 69.8 µM (inactive) | GI50 [54]: > 100 µM (inactive) | GI50 [55]: > 100 µM (inactive) | GI50 [56]: > 100 µM (inactive) | GI50 [58]: > 100 µM (inactive) | GI50 [57]: > 100 µM (inactive)

c1csc(-c2nccc3c2[nH]c2ccccc23)c1
GI50 [1]: 18.1 µM (inactive) | GI50 [2]: 15.3 µM (inactive) | GI50 [3]: 18.5 µM (inactive) | GI50 [4]: 24.5 µM (inactive) | GI50 [5]: 27.4 µM (inactive) | GI50 [6]: 21.2 µM (inactive) | GI50 [7]: 14.8 µM (inactive) | GI50 [8]: 27.9 µM (inactive) | GI50 [9]: 46.6 µM (inactive) | GI50 [10]: 21.8 µM (inactive) | GI50 [11]: 16.3 µM (inactive) | GI50 [12]: 20.4 µM | GI50 [13]: 29.3 µM (inactive) | GI50 [14]: 18.3 µM (inactive) | GI50 [15]: 22.3 µM (inactive) | GI50 [16]: 15.1 µM (inactive) | GI50 [17]: 46 µM (inactive) | GI50 [18]: 18.4 µM (inactive) | GI50 [19]: 25.6 µM (inactive) | GI50 [20]: 19.5 µM (inactive) | GI50 [21]: 20.5 µM (inactive) | GI50 [22]: 17.8 µM (inactive) | GI50 [23]: 3.35 µM (inactive) | GI50 [24]: 20.6 µM (inactive) | GI50 [25]: 18.3 µM (inactive) | GI50 [26]: 17.5 µM (inactive) | GI50 [27]: 22.2 µM (inactive) | GI50 [28]: 24.2 µM (inactive) | GI50 [29]: 12 µM (inactive) | GI50 [30]: 18.7 µM (inactive) | GI50 [31]: 23.9 µM (inactive) | GI50 [32]: 15.8 µM (inactive) | GI50 [33]: 22.2 µM (inactive) | GI50 [34]: 20.5 µM (inactive) | GI50 [35]: 18.2 µM (inactive) | GI50 [36]: 28.2 µM (inactive) | GI50 [37]: 20.5 µM (inactive) | GI50 [38]: 21.6 µM (inactive) | GI50 [40]: 16.3 µM (inactive) | GI50 [41]: 27 µM (inactive) | GI50 [42]: 16.1 µM (inactive) | GI50 [43]: 16.4 µM (inactive) | GI50 [44]: 25.6 µM (inactive) | GI50 [45]: 21.8 µM (inactive) | GI50 [46]: 16.7 µM (inactive) | GI50 [47]: 14.2 µM (inactive) | GI50 [48]: 16.8 µM (inactive) | GI50 [49]: 27.7 µM (inactive) | GI50 [50]: 14.1 µM (inactive) | GI50 [51]: 21 µM (inactive) | GI50 [52]: 21 µM (inactive) | GI50 [53]: 11.8 µM (inactive) | GI50 [54]: 21.1 µM (inactive) | GI50 [55]: 25.4 µM (inactive) | GI50 [56]: 21.2 µM (inactive) | GI50 [58]: 30.2 µM (inactive)
